The record followed here is patent US20150045367A1, “CINNAMIC ACID HYDROXYAMIDES AS INHIBITORS OF HISTONE DEACETYLASE 8” (PHARMACYCLICS, INC., priority 2011, published 2015).

One assay has as its target T1, HDAC6 (Homo sapiens, UniProt Q9UBN7).
T1 sequence (Q9UBN7 1-1215): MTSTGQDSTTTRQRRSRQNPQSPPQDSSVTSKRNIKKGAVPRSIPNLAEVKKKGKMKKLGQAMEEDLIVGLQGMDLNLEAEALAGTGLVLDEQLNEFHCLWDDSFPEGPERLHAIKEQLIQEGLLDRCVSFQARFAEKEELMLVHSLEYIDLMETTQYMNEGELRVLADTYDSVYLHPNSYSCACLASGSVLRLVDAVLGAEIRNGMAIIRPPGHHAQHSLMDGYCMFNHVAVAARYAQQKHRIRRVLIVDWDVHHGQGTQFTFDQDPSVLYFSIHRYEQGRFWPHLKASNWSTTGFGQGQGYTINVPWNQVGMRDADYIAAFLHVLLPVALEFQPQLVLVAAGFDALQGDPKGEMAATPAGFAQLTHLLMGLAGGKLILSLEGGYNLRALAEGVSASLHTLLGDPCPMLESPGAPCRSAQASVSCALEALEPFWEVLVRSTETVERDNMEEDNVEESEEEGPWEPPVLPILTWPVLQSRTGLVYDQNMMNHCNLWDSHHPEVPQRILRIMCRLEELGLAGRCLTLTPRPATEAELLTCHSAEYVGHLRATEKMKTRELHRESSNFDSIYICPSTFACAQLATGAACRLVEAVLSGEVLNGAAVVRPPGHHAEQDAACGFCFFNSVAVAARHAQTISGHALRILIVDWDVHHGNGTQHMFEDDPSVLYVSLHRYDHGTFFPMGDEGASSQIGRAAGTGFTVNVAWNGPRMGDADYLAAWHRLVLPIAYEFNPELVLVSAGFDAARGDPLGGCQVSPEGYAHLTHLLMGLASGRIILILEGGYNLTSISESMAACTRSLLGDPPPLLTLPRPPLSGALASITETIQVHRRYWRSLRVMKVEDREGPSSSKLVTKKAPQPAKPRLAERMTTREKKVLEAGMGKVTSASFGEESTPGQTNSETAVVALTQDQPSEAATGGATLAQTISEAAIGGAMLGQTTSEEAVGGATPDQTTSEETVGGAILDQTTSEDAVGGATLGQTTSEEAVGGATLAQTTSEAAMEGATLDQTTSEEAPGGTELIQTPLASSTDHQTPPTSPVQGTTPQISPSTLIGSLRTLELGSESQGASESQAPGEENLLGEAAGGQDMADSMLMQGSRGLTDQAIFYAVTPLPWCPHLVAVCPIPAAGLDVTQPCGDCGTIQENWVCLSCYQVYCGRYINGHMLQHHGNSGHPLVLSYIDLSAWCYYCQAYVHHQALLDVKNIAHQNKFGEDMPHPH
The assay can be described thus: Histone deacetylase activity, continuous trypsin-coupled assay. To be noted: trypsin-coupled fluorescence assay, acetyl-Gly-Ala-(N-acetyl-Lys)-AMC substrate. Type of assay: biochemical. How it is done:
(§1) HDAC activity is measured using a continuous trypsin-coupled assay that has been described in detail previously (US 20070281934; Schultz et. al., Biochemistry, 43 (34), 11083-11091, 2004; Kim et al. (2006), Methods Mol. Biol., 325:273-283). For inhibitor characterization, measurements are performed in a reaction volume of 100 µL using 96-well assay plates in a fluorescence plate reader. For each isozyme, the HDAC protein in reaction buffer (50 mM HEPES, 100 mM KCl, 0.001% Tween-20, 5% DMSO, pH 7.4, supplemented with bovine serum albumin at concentrations of 0-0.05%, is mixed with inhibitor at various concentrations and allowed to incubate for 15 minutes. Trypsin is added to a final concentration of 50 nM, and acetyl-Gly-Ala-(N-acetyl-Lys)-AMC is added to a final concentration of 25-100 μM to initiate the reaction. After a 30 minute lag time, the fluorescence is measured over a 30 minute time frame using an excitation wavelength of 355 nm and a detection wavelength of 460 nm. The increase in fluorescence with time is used as the measure of the reaction rate. Inhibition constants Ki(app) were obtained using the program BatchKi (Biokin, Pullman, Wash.).

The next assay addresses HDAC1 (Homo sapiens, UniProt Q13547). The assay is described as above. To be noted: trypsin-coupled fluorescence assay, acetyl-Gly-Ala-(N-acetyl-Lys)-AMC substrate. It counts as biochemical. How it is done: as §1
For the next assay, the target named is T2, HDAC8 (Homo sapiens, UniProt Q9BY41).
T2 sequence (Q9BY41 1-377): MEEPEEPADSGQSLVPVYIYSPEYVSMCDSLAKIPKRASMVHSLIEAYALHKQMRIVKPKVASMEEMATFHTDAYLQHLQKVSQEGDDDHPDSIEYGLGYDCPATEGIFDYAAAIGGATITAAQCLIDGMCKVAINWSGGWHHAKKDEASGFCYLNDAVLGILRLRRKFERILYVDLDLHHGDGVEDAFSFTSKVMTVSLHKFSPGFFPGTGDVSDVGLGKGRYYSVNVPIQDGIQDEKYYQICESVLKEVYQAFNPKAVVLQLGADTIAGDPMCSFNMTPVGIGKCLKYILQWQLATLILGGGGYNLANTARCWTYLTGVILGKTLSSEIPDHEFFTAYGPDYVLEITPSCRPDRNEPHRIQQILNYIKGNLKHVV
The assay is described as above. To be noted: trypsin-coupled fluorescence assay, acetyl-Gly-Ala-(N-acetyl-Lys)-AMC substrate. Type of assay: biochemical. As to the method: as §1

The subject of a further assay is Jurkat cells. The assay can be described thus: Cell proliferation assay, growth inhibition by Alamar Blue. It counts as cell-based. Conditions: Homo sapiens, 72 h, treated with compound for 3 days. How it is done: Cell lines are obtained from DSMZ (Braunschweig, Germany) or ATCC (Manassas, Va.). Cells are grown in RPMI 1640 with 10% fetal bovine serum in a 5% CO2/air incubator at 37° C. Thapsigargin and BAPTA-AM are from Calbiochem (San Diego, Calif.). 3-((dimethylamino)methyl)-N-(2-(4-(hydroxycarbamoyl)phenoxy)ethyl)benzofuran-2-carboxamide is a broad-spectrum HDAC inhibitor which was synthesized as previously described. Other analogs with varying degrees of specificity towards the HDAC isoforms are synthesized as described herein.
Tumor cell lines and human umbilical vein endothelial cells (HUVEC) are cultured for at least two doubling times, and growth is monitored at the end of compound exposure using an Alamar Blue™ (Biosource, Camarillo, Calif.) fluorometric cell proliferation assay as recommended by the manufacturer. Compounds are assayed in triplicate wells in 96-well plates. The concentration required to inhibit cell growth by 50% (GI50) and 95% confidence intervals are estimated from nonlinear regression using a 4-parameter logistic equation. The effect of HDAC8 selective inhibitor compounds on cell proliferation in Jurkat cells is measured. Apoptosis is measured by Annexin-V flow cytommetry. Growth inhibiton iss measured by Alamar Blue assay. Cells are treated with compound for 3 days.
Background: Resazurin is reduced to fluorescent resorufin, in cell work by metabolically active cells.

Each structure is given as a SMILES string.

As usually defined, the IC50 is the concentration needed to halve the response being measured. A higher IC50 goes with weaker potency. As a reminder, the GI50 is the concentration at which growth is held to half of that of the control.

Sequence of HDAC1 (Q13547 whole entry): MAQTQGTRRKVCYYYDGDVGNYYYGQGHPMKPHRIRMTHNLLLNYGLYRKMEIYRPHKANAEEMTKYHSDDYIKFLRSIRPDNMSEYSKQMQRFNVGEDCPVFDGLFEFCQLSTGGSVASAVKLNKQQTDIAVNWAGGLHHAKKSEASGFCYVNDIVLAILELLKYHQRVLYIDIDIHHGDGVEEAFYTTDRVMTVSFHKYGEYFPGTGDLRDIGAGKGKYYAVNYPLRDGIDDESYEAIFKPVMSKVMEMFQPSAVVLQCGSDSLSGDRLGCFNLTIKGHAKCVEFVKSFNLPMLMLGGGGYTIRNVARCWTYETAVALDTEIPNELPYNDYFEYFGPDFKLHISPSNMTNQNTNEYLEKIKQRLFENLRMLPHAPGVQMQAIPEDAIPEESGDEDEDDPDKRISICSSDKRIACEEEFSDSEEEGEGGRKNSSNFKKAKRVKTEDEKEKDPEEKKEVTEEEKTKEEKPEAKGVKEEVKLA

With `O=C(/C=C/c1ccccc1Oc1ccc(F)cc1)NO` [Compound 9, (E)-3-(2-(4-Fluorophenoxy)phenyl)-N-hydroxyacrylamide], the IC50 was 1000 to 10000 nM at HDAC6, 1000 to 10000 nM against HDAC1 and at most 100 nM against HDAC8. Moreover, the GI50 in the assay on Jurkat cells is 2000 nM.
